Results on one compound are retold here after article PMC6522912, “Evaluation of the published kinase inhibitor set to identify multiple inhibitors of bacterial ATP-dependent mur ligases” (Journal of Enzyme Inhibition and Medicinal Chemistry, 2019).

The test system of test [1] is Staphylococcus aureus (ATCC 29213). The test is described as follows: Antimicrobial testing, broth microdilution. It is filed as cell-based. Particulars: ATCC29213, positive control, 20 h, 37 °C. The protocol: (§1) Antimicrobial testing was performed by the broth microdilution method in 96-well plates following the Clinical and Laboratory Standards Institute guidelines[29] and European Committee on Antimicrobial Susceptibility Testing recommendations. Bacterial suspensions equivalent to 0.5 McFarland turbidity standard were diluted with cation-adjusted Mueller–Hinton broth with TES buffering (ThermoFisher Scientific), for a final inoculum of 10^5 CFU/mL. The compounds dissolved in DMSO and the inoculum were mixed together and incubated for 20 h at 37 °C. […] The MICs were determined against Staphylococcus aureus (ATCC 29213) and E. coli (ATCC 25922) bacterial strains. Tetracycline was used as the positive control on every assay plate, with MICs of 0.5 and 1 µg/mL for S. aureus and E. coli, respectively.
On the technique in general: In broth dilution the organism is exposed to a series of concentrations in liquid medium.

Another test has as its system E. coli (ATCC 25922). The test is described as follows: Antimicrobial testing, broth microdilution. It is filed as cell-based. Particulars: Escherichia coli, ATCC25922; positive control; 20 h, 37 °C. On the procedure:
as §1

Molecules are shown by their SMILES. Converted amounts (≈) assume the structure as drawn.

The MIC is the lowest concentration that inhibits growth of the organism. A high value points to weaker potency.

Take `CN(C)[C@@H]1C(O)=C(C(N)=O)C(=O)[C@@]2(O)C(O)=C3C(=O)c4c(O)cccc4[C@@](C)(O)[C@H]3C[C@@H]12` [Tetracycline]: the MIC came out at 0.5 µg/mL (≈ 1.13 µM) in test [1] and 1 µg/mL (≈ 2.25 µM) against E. coli (ATCC 25922).
